Reference: patent US20060058263A1, “Heat pasturized liquids containing glucosamine” (priority 2002, published 2006)

Assay: Amount of GLCN present following heating (HPAEC-PAD recovery)
Format: physicochemical
Method: To determine the amount of GLCN that remains following exposing GLCN beverages to a high temperature, such as those used in pasteurization, the following methods were used.
A beverage sample as described in the preceding examples containing […] of GLCN was dispersed in 25 g of 1.0 N HCl in a 50-mL polypropylene centrifuge tube and capped tightly. The sample was mixed for 30 seconds using a vortex mixer, then placed in a water bath at 37° C. The sample was removed from the water bath at 15-minute intervals, mixed for 30 seconds on a vortex mixer, then returned to the water bath. This cycle was repeated until the sample had been in the water bath for one hour.
After heating, the sample was mixed for 30 seconds on a vortex mixer, then centrifuged for 10 minutes to separate the liquid and solid phases. Fats, oils or lipids in the sample formed a third layer at the top of the tube. A 1-g aliquot of the aqueous sample portion was diluted 100-fold with deionized water, then transferred to an autosampler vial with filter cap.
The free glucosamine in prepared samples was determined using high performance anion-exchange chromatography with pulsed amperometric detection ([…]). The system included an EG40 eluent generator, GP50 gradient pump, AS40 autosampler, LC25 column oven, and ED40 electrochemical detector, all produced by Dionex Corporation (Sunnyvale, Calif.).
The method was adapted from Dionex Corporation Technical Note 40. A Dionex CarboPac PA-20 column was used in place of the PA-10 described in the Technical Note. The eluent was 8 mM KOH at 0.5 mL/min. The column and detector were maintained at 30° C. The injection volume was 10 μL. The standard was glucosamine hydrochloride at 10.8 mg/L. Fermentation broth samples were diluted five-fold with deionized water, ASTM Type II, and filtered through 0.2 μ vial filters in the autosampler. Multiple standards were analyzed before and after each sample set.

% GlcNHCl Recovered (Grape juice, boil, 5 min): 102% | % GlcNHCl Recovered (Lemonade, 71 ° C., 20 min): 101% | % GlcNHCl Recovered (Lemonade, 90 ° C., 20 sec): 101% | % GlcNHCl Recovered (Lemonade, boil, 5 min): 100% | % GlcNHCl Recovered (Lemonade, room temperature): 102%
Structure (SMILES): N[C@H]1C(O)O[C@H](CO)[C@@H](O)[C@@H]1O (some centres unmarked) [GLCN, glucosamine]
